The record followed here is patent US6603014B1, “Use of cyclic enamines as light protection agents” (BASF Aktiengesellschaft, priority 1999, dated 2003).

SMILES strings stand for the structures.

The data set can be described thus: UV absorption properties (λmax and specific absorbance E 1/1) of the light protection agents. Format: physicochemical. Details: unit not given here. The source says: Further Examples 2 to 23 as in Tables 1, 2 and 3 are obtained analogously. Substituents in the aromatic rings can also be introduced later.
[1] abbreviates: Table 1, specific absorbance at λmax.
The mark [2] stands for this setting: Table 2, specific absorbance at λmax.
Where [3] appears, read: Table 3, specific absorbance at λmax.

For the molecule `COC(=O)C(C#N)=C1Nc2ccccc2S1` [Example 1], the λmax (Table 1, UV absorption maximum) amounted to 336. Further, the “E^11” value under setting [1] is 1723.

Where the note is “Table 2, UV absorption maximum”, `CC1CC(OC(=O)C(C#N)=C2Sc3ccccc3N2C)CC(C)(C)C1` (stereo not shown) [Example 14] yielded a λmax of 340. In addition, the “E^11” value under setting [2] is on record as 1090.

`COC(=O)C(C#N)=C1Nc2ccc(OC)cc2N1` [Example 5] came in with a λmax (Table 1, UV absorption maximum) of 328. The “E^11” value under setting [1] is 1601.

Take `CCCCCCN1C(=C(C#N)C(=O)OC)N(CCCCCC)c2ccccc21` [Example 22]: the λmax (Table 3, UV absorption maximum) is 325. Further, under setting [3], the “E^11” value came to 970.

Take `COc1ccc2c(c1)NC(=C(C#N)C#N)N2` [Example 4]: the λmax (Table 1, UV absorption maximum) is on record as 326. Further, the “E^11” value under setting [1] is on record as 1784.

Molecule `CCOC(=O)c1ccc2c(c1)NC(=C(C#N)C#N)N2` [Example 6] returned a λmax (Table 1, UV absorption maximum) of 334. Also, under setting [1], the “E^11” value is 821.

On to `COC(=O)C(C#N)=C1Nc2ccccc2N1` [Example 3], for which, for the setting “Table 1, UV absorption maximum”, the λmax turned out to be 316. Besides, under setting [1], the “E^11” value is listed as 1986.

Consider `COC(=O)C(C#N)=C1Nc2ccc(C)cc2N1` [Example 9], for which the λmax (Table 1, UV absorption maximum) worked out at 320. Moreover, the “E^11” value under setting [1] is on record as 1854.

Regarding `CCCCOC(=O)C(C#N)=C1Sc2ccccc2N1CCCC` [Example 18], the λmax (Table 2, UV absorption maximum) stood at 340. For the same molecule, under setting [2], the “E^11” value is listed as 1250.

Turning to `CCCCCCN1C(=C(C#N)C(=O)OC)Sc2ccccc21` [Example 17], the λmax (Table 2, UV absorption maximum) came to 340. For the same molecule, the “E^11” value under setting [2] is 1200.

On to `COC(=O)C(C#N)=C1Nc2ccccc2O1` [Example 11], for which the λmax (Table 1, UV absorption maximum) worked out at 310. The “E^11” value under setting [1] was determined as 1778.

`CCCCC(CC)COC(=O)/C(C#N)=C1\Sc2ccccc2N1C` (stereo not shown) [Example 13] gave a λmax (Table 2, UV absorption maximum) of 340. Under setting [2], the “E^11” value was determined as 1150.

For the setting “Table 1, UV absorption maximum”, `Cc1ccc2c(c1)NC(=C(C#N)C#N)N2` [Example 8] yielded a λmax of 318. For the same molecule, the “E^11” value under setting [1] came to 2055.

On to `CCCCCCN1C(=C(C#N)C(=O)OC2CC(C)CC(C)(C)C2)Sc2ccccc21` (stereo not shown) [Example 16], for which the λmax (Table 2, UV absorption maximum) turned out to be 340. In addition, the “E^11” value under setting [2] was 790.

On to `COC(=O)/C(C#N)=C1\Nc2ccc(C(=O)c3ccccc3)cc2N1` [Example 21], for which, where the note is “Table 3, UV absorption maximum”, the λmax is given as 348. Further, the “E^11” value under setting [3] turned out to be 740.

`N#CC(C#N)=C1Nc2ccccc2O1` [Example 10] yielded a λmax (Table 1, UV absorption maximum) of 308. Also, the “E^11” value under setting [1] came to 1844.

With `CCCCCCN1C(=C(C#N)C(=O)OCC(CC)CCCC)Sc2ccccc21` (stereo not shown) [Example 15], for the setting “Table 2, UV absorption maximum”, the λmax was found to be 340. Moreover, the “E^11” value under setting [2] is listed as 830.

Where the note is “Table 3, UV absorption maximum”, `CN1/C(=C(\C#N)C(=O)OCCS(=O)(=O)O)Sc2ccccc21` [Example 23] showed a λmax of 340. In addition, under setting [3], the “E^11” value is listed as 1160.

`CCOC(=O)c1ccc2c(c1)NC(=C(C#N)C(=O)OC)N2` [Example 7] had a λmax (Table 1, UV absorption maximum) of 332. In addition, the “E^11” value under setting [1] turned out to be 952.

Consider `N#CC(C#N)=C1Nc2ccccc2N1` [Example 2], for which the λmax (Table 1, UV absorption maximum) worked out at 314. Also, the “E^11” value under setting [1] is listed as 2297.

Where the note is “Table 3, UV absorption maximum”, `COC(=O)/C(C#N)=C1\Sc2ccccc2N1CCCS(=O)(=O)O` [Example 20] displayed a λmax of 340. The “E^11” value under setting [3] came to 1200.

`N#CC(C#N)=C1Nc2ccccc2S1` [Example 12]: the λmax (Table 1, UV absorption maximum) came out at 334. Moreover, the “E^11” value under setting [1] is recorded as 1776.

Consider `COC(=O)C(C#N)=c1[nH]c2cccc3cccc([nH]1)c32` [Example 24], for which the λmax (Table 3, UV absorption maximum) was found to be 296. Further, the “E^11” value under setting [3] came to 1503.
